The values below come from paper PMC8750417, “Intracellular Amplifiers of Reactive Oxygen Species Affecting Mitochondria as Radiosensitizers” (Cancers, 2021).

Molecules are shown by their SMILES.

A word on the IC50: it is the concentration that gives 50% inhibition.

Common to all, as to assay type: cell-based, human
Assay [1] concerns chronic lymphocytic leukemia (CLL) cells. In words: Viability of primary CLL cells (CellTiter Glo). The conditions noted are these: 48 h. The text has this: (§1) Determination of viability of primary cancer (CLL) and normal (MNC) cells in the […]
Clinical samples from chronic lymphocytic leukemia (CLL) patients (N=6, CLL cells) and healthy donors (N=6; peripheral blood mononuclear cells, MNCs) were collected at the University Hospital Heidelberg, Germany. Informed consent was obtained in accordance with the Declaration of Helsinki. Sample collection and analysis was approved by the ethics committee of the University of Heidelberg (S-254/2016). Blood was separated by a Ficoll gradient (GE Healthcarey), and cells were cryopreserved. Drug sensitivity screening was performed in 384-well format (Greiner Bio One) with 10 different prodrug […]
4x10^4 cells per well. Cells were cultured in RPMI-1640 (Invitrogen) supplemented with penicillin/streptomycin (Invitrogen), L-glutamine (Invitrogen) and 10% pooled and heat inactivated AB-type human serum (Sigma-Aldrich). Cell viability was assessed by quantification of ATP (CellTiter Glo®, Promega) 48 hours after drug application.
Luminescence was measured on a Tecan Infinite F200 Microplate Reader. Viability was calculated as % of solvent (DMSO) treated control. Representative plots of cell viability
A general note: Cellular ATP, detected with luciferase, serves as a proxy for viable cell number.

The test system of assay [2] is mononuclear cells (MNCs) from healthy donors. Briefly: Viability of primary mononuclear cells (CellTiter Glo). The settings on record: primary MNC from six healthy donors, 48 h. As for the experimental part:
Afterwards, the cells were washed with DPBS and a fresh portion of RPMI 1640 medium containing 5% FBS, 1% L-glutamine and 1% penicillin/streptomycin (1 mL) was added.
The fluorescence images were taken with a Zeiss Axio Vert.A1 fluorescence microscope […]
For SBLF9 the same procedure was applied except that Ham's F-12K (Kaighn's)-Medium supplemented with 15 % FBS, 2 % non-essential amino acid mix, and 1 % penicillin/streptomycin was used for cell seeding and incubation with the prodrug or the carrier. A cell density of 40 cells/µL was used.
as §1
Clinical samples from chronic lymphocytic leukemia (CLL) patients (N=6, CLL cells) and healthy donors (N=6; peripheral blood mononuclear cells, MNCs) were collected at the University Hospital Heidelberg, Germany. Informed consent was obtained in accordance with the Declaration of Helsinki. Sample collection and analysis was approved by the ethics committee of the University of Heidelberg (S-254/2016). Blood was separated by a Ficoll gradient (GE Healthcarey), and cells were cryopreserved. […]
4x10^4 cells per well. […] Cell viability was assessed by quantification of ATP (CellTiter Glo®, Promega) 48 hours after drug application.
Luminescence was measured on a Tecan Infinite F200 Microplate Reader. Viability was calculated as % of solvent (DMSO) treated control. […]

Another assay relates to A2780 cells. Briefly: Generation of nitric oxide (DAF-FM diacetate), A2780. The conditions noted are these: 2 h. As for the experimental part:
with CO2 (5%) at 37 °C for 2 h. Next, the cells were detached from the culture dish using trypsin/EDTA (0.025%/0.01%, v/v, 200 µL). The cells were re-suspended in RPMI 1640 medium containing 5% FBS, 1% L-glutamine and 1% penicillin/streptomycin (200 µL).
Finally, the fluorescence of live cells (λex = 488 nm, λem = 530 nm) in the suspensions was determined by using flow cytometry (Figure 4C).
Figure S61. Representative flow cytometric histograms used for setting up Figure 4C.
Generation of nitric oxide in A2780 cells
A2780 cells were seeded into 96 well culture plates at the same cell concentration and in the same medium as applied for the assay for monitoring mROS described above. On the day of the experiment, the cells were washed twice with DPBS buffer and the medium was replaced with HBSS (100 μL). […]
The cells were re-suspended in RPMI 1640 medium containing 5% FBS, 1% L-glutamine and 1% penicillin/streptomycin (100 µL). Finally, the fluorescence of live cells (λex = 488 nm, λem = 530 nm) in the suspensions was determined by using flow cytometry (Figure […]
Figure S62. Fluorescence of DAF-FM diacetate-loaded A2780 cells treated either with 2c or the carrier. *: p<0.05, Student’s t test. […]

`CC1(C)OB(c2ccc(COC(=O)N(Cc3cn(Cc4ccc(Cn5cc(Cc6ccccc6)nn5)cc4)nn3)[c-]3cccc3)cc2)OC1(C)C.[Fe+2].c1cc[cH-]c1` [2c]: the IC50 is 6 ± 2 µM in assay [1] (primary CLL cells from six patients) and 12 ± 3 µM in assay [2]. Besides, the “cancer cell specificity, primary CLL cells vs MNCs” value in assay [1] (viability of CLL vs MNC, for 2c at 3.3 and 10 µM) is “significantly more toxic in the cancer cells than in the normal cells”. The “level of NO vs carrier” value with A2780 cells was “higher than that in A2780 cells treated with DMSO (carrier) only”.
